target: mitochondrial RNA-polymerase (POLRMT) (Mus musculus, UniProt Q8BKF1); experiment: Homogeneous TR-FRET assay for mitochondrial transcription activity; type: biochemical; conditions: homogeneous TR-FRET assay according to Example 4; read-out: mitochondrial transcription activity (IC-50)
Text: The TR-FRET assay was basically conducted as described in WO 2016/193231A1, especially as described in example 1 (hereby incorporated by reference). With respect to the background of the mitochondrial transcription it is referred to Falkenberg et al. (2002) and Posse et al. (Posse et al. 2015). The method monitors the activity of mitochondrial RNA-polymerase via detection of the formation of its product, a 407 bp long RNA sequence. Detection of the product is facilitated by hybridization of two DNA-oligonucleotide probes to specific and adjacent sequences within the RNA product sequence. Upon annealing of the probes, two fluorophores that are coupled directly to an acceptor nucleotide probe (ATT0647, 5′) or introduced via a coupled streptavidin interacting with a biotinylated donor nucleotide probe on the other side (Europium cryptate, 3) are brought into sufficient proximity to serve as a fluorescence-donor-acceptor pair as generally described in Walters and Namchuk (2003). Thus, a FRET signal at 665 nm is generated upon excitation at 340 nm.
Briefly, the protocol described here was applied for screening and activity determination in a low-volume 384-well microtiter plate with non-binding surface. For high-throughput application in the 1536-well microtiter plate format, volumes of the reagent mixes were adjusted, maintaining the volumetric ratio. Proteins POLRMT (NM_172551.3), TFAM (NM_009360.4) and TFB2M (NM_008249.4) were diluted from their stocks to working concentrations of 150 nM, 1.8 μM and 330 nM respectively, in a dilution buffer containing 100 mM Tris-HCl pH 8.0, 200 mM NaCl, 10% (v/v) glycerole, 2 mM glutathione (GSH), 0.5 mM EDTA and 0.1 mg/mL BSA. Protein dilutions and template DNA, comprising a pUC18 plasmid encoding the mitochondrial light strand promoter, restriction linearized proximal to the promoter 3′-end (pUC-LSP), were mixed at the twofold final assay-concentration in a reaction buffer, containing 10 mM Tris-HCl pH 7.5, 10 mM MgCl2, 40 mM NaCl, 2 mM GSH, 0.01% (w/v) Tween-20 and 0.1 mg/mL BSA.
5 μL of this mix were dispensed, depending on the chosen microtiter plate format, using multi-channel pipettes or a Multidrop® dispenser (Thermo Fisher Scientific, Waltham Mass.) into the wells of a microtiter plate and incubated at room temperature (RT) for 10 min. Chemical compounds under scrutiny in the assay were applied using contact-free acoustic droplet-dispensing (Echo520® Labcyte Inc., Sunnyvale Calif.) from 10 mM compound stocks in 100% DMSO, to a final concentration of 10 μM or in serial dilution series of the required concentration range. Equal amounts of DMSO without any compound were added to positive control samples, followed by an incubation step at RT for 10 min.
The enzymatic reaction was started by the addition of 5 μL of a mix of dNTPs in reaction buffer to a final concentration of 500 μM each. No nucleotide mix was added to negative control samples. The content of the wells was mixed using a VarioTeleshaker™ (Thermo Fisher Scientific, Waltham Mass.) at 1500 rpm for 45 sec after which the microtiter plate was centrifuged at 500×g for 1 min. The samples were incubated for 2 h at RT with humidity control to avoid evaporation. The detection reagents were prepared in a buffer that was composed, such that the enzymatic reaction was terminated due to chelating of Mg-ions and increased ionic strength, containing 50 mM Tris-HCl pH 7.5, 700 mM NaCl, 20 mM EDTA, and 0.01% (w/v) Tween-20. Importantly Eu-cryptate-coupled streptavidin had to be preincubated with a 100-fold molar excess of a random sequence oligonucleotide for 10 min at RT in the dark to block unspecific binding of single stranded RNA to the protein. Subsequently, the blocked streptavidin(-Eu) was mixed with the DNA-probes on ice and kept away from light until use. […]

mitochondrial RNA-polymerase (POLRMT), sequence (Q8BKF1 42-1207): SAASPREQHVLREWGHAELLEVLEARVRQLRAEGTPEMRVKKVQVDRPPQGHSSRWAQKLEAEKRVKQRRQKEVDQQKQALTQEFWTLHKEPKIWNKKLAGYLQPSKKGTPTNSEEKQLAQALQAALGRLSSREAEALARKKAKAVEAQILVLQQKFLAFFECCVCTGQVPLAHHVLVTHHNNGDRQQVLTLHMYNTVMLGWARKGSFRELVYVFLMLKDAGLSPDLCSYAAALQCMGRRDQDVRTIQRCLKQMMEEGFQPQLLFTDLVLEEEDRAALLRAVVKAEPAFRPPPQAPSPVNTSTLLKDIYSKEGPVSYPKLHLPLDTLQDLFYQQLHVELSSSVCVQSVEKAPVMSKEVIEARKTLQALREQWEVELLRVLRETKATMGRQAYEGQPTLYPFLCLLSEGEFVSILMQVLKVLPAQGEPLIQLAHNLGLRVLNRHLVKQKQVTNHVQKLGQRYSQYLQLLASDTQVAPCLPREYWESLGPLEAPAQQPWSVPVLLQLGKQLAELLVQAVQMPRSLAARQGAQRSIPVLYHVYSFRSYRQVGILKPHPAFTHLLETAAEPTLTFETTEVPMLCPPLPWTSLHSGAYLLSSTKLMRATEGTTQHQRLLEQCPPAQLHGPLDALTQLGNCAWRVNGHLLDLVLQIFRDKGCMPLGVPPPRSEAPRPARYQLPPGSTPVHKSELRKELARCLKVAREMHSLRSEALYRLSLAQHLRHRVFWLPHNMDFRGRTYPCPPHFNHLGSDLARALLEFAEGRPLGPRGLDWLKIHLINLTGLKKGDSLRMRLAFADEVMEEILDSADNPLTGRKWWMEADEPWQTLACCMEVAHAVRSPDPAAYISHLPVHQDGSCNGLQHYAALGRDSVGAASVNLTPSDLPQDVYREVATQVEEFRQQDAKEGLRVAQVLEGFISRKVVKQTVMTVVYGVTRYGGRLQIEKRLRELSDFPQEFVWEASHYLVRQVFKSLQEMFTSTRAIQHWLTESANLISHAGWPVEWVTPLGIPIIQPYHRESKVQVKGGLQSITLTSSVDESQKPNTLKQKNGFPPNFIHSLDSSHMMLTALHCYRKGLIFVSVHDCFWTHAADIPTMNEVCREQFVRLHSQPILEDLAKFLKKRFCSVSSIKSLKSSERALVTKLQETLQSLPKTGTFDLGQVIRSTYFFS

| IC50 | Structure (SMILES) |
| --- | --- |
| 1000 to 10000 nM | CCOC(=O)[C@H]1CCCN(C(=O)C(C)Oc2ccc3c(-c4ccccc4)cc(=O)oc3c2)C1 (mixture of isomers) [Compound 64, ethyl rac-(3S)-1-[2-(2-oxo-4-phenyl-chromen-7-yl)oxypropanoyl]piperidine-3-carboxylate] |
| 1000 to 10000 nM | CC(Oc1ccc2c(-c3ccccc3)cc(=O)oc2c1)C(=O)N1CCC[C@H](C(=O)N(C)C)C1 (mixture of isomers) [Compound 68, rac-(3S)-N,N-dimethyl-1-[2-(2-oxo-4-phenyl-chromen-7-yl)oxpropanoyl]piperidine-3-carboxamide] |
| 100 to 1000 nM | CCOC(=O)C(C)Oc1ccc2c(-c3ccc(Cl)cc3)cc(=O)oc2c1 (centres unmarked) [Compound 3, ethyl 2-[4-(4-chlorophenyl)-2-oxo-chromen-7-yl]oxypropanoate] |
| 100 to 1000 nM | CCOC(=O)C(C)Oc1ccc2c(-c3cccc(Cl)c3)cc(=O)oc2c1 (centres unmarked) [Compound 4, ethyl 2-[4-(3-chlorophenyl)-2-oxo-chromen-7-yl]oxypropanoate] |
| 100 to 1000 nM | CC(Oc1ccc2c(-c3ccccc3)cc(=O)oc2c1)C(=O)Nc1ccc(CCCO)cc1 (centres unmarked) [Compound 5, N-[4-(3-hydroxypropyl)phenyl]-2-(2-oxo-4-phenyl-chromen-7-yl)oxy-propanamide] |
| 100 to 1000 nM | CC(Oc1ccc2c(-c3ccccc3)cc(=O)oc2c1)C(=O)Nc1ccccn1 (centres unmarked) [Compound 6, 2-(2-oxo-4-phenyl-chromen-7-yl)oxy-N-(2-pyridyl)propanamide] |
| 100 to 1000 nM | CCOC(=O)C(C)Oc1ccc2c(-c3ccc(F)cc3)cc(=O)oc2c1 (centres unmarked) [Compound 8, ethyl 2-[4-(4-fluorophenyl)-2-oxo-chromen-7-yl]oxypropanoate] |
| 100 to 1000 nM | CCOC(=O)C(C)Oc1ccc2c(-c3ccc(C)cc3)cc(=O)oc2c1 (centres unmarked) [Compound 9, ethyl 2-[2-oxo-4-(p-tolyl)chromen-7-yl]oxypropanoate] |
| 100 to 1000 nM | COC(=O)C1CCCN(C(=O)C(C)Oc2cc3oc(=O)cc(-c4ccccc4)c3cc2Cl)C1 (centres unmarked) [Compound 10, methyl 1-[2-(6-chloro-2-oxo-4-phenyl-chromen-7-yl)oxypropanoyl]piperidine-3-carboxylate] |
| 100 to 1000 nM | CC(Oc1cc2oc(=O)cc(-c3ccccc3)c2cc1Cl)C(=O)Nc1ccccn1 (centres unmarked) [Compound 11, 2-(6-chloro-2-oxo-4-phenyl-chromen-7-yl)oxy-N-(2-pyridyl)propanamide] |
| 100 to 1000 nM | CC(Oc1cc2oc(=O)cc(-c3ccccc3)c2cc1Cl)C(=O)N1CCCC(C(=O)O)C1 (centres unmarked) [Compound 13, 1-[2-(6-chloro-2-oxo-4-phenyl-chromen-7-yl)oxypropanoyl]piperidine-3-carboxylic acid] |
| 100 to 1000 nM | CC(Oc1ccc2c(-c3ccccc3)cc(=O)oc2c1)C(=O)N1CCCC(C(=O)O)C1 (centres unmarked) [Compound 14, 1-[2-(2-oxo-4-phenyl-chromen-7-yl)oxypropanoyl]piperidine-3-carboxylic acid] |
| 100 to 1000 nM | CC(Oc1ccc2c(-c3ccccc3)cc(=O)oc2c1)C(=O)Nc1ccc(CCO)cc1 (centres unmarked) [Compound 16, N-[4-(2-hydroxyethyl)phenyl]-2-(2-oxo-4-phenyl-chromen-7-yl)oxy-propanamide] |
| 100 to 1000 nM | CC(Oc1cc2oc(=O)cc(-c3ccccc3)c2cc1Cl)C(=O)Nc1ccc(CCO)cc1 (centres unmarked) [Compound 17, 2-(6-chloro-2-oxo-4-phenyl-chromen-7-yl)oxy-N-[4-(2-hydroxyethyl)phenyl]propanamide] |
| 100 to 1000 nM | CC(Oc1ccc2c(-c3ccccc3)cc(=O)oc2c1)C(=O)N(C)c1ccc(CCO)cc1 (centres unmarked) [Compound 18, N-[4-(2-hydroxyethyl)phenyl]-N-methyl-2-(2-oxo-4-phenyl-chromen-7-yl)oxy-propanamide] |
| < 20 nM | CC(Oc1ccc2c(-c3ccccc3)cc(=O)oc2c1)C(=O)N1CCCC(c2nn[nH]n2)C1 (centres unmarked) [Compound 20, 7-[1-methyl-2-oxo-2-[3-(2H-tetrazol-5-yl)-1-piperidyl]ethoxy]-4-phenyl-chromen-2-one] |

| IC50 | Structure (SMILES) |
| --- | --- |
| 100 to 1000 nM | C[C@@H](Oc1ccc2c(-c3ccccc3)cc(=O)oc2c1)C(=O)N1CCC[C@H](C(=O)O)C1 [Compound 21, (3S)-1-[(2R)-2-(2-oxo-4-phenyl-chromen-7-yl)oxypropanoyl]piperidine-3-carboxylic acid] |
| 100 to 1000 nM | O=C(COc1ccc2c(-c3ccccc3)cc(=O)oc2c1)Nc1ccccn1 [Compound 22, 2-(2-oxo-4-phenyl-chromen-7-yl)oxy-N-(2-pyridyl)acetamide] |
| 1000 to 10000 nM | COC(=O)C1CCCN(C(=O)COc2ccc3c(-c4ccccc4)cc(=O)oc3c2)C1 (centres unmarked) [Compound 23, methyl 1-[2-(2-oxo-4-phenyl-chromen-7-yl)oxyacetyl]piperidine-3-carboxylate] |
| 1000 to 10000 nM | CC(Oc1ccc2c(-c3ccccc3)cc(=O)oc2c1)C(=O)Oc1ccccc1 (centres unmarked) [Compound 24, phenyl 2-(2-oxo-4-phenyl-chromen-7-yl)oxypropanoate] |
| 100 to 1000 nM | CC(Oc1ccc2c(-c3ccccc3)cc(=O)oc2c1)C(=O)Nc1ccccc1 (centres unmarked) [Compound 25, 2-(2-oxo-4-phenyl-chromen-7-yl)oxy-N-phenyl-propanamide] |
| 100 to 1000 nM | CNC(=O)C(C)Oc1ccc2c(-c3ccccc3)cc(=O)oc2c1 (centres unmarked) [Compound 26, N-methyl-2-(2-oxo-4-phenyl-chromen-7-yl)oxy-propanamide] |
| 1000 to 10000 nM | CC(Oc1cc2oc(=O)cc(-c3ccccc3)c2cc1Cl)C(=O)NCC(O)c1ccccc1 (centres unmarked) [Compound 27, 2-(6-chloro-2-oxo-4-phenyl-chromen-7-yl)oxy-N-(2-hydroxy-2-phenyl-ethyl)propanamide] |
| 100 to 1000 nM | CC(Oc1cc2oc(=O)cc(-c3ccccc3)c2cc1Cl)C(=O)Nc1ccc(CCCO)cc1 (centres unmarked) [Compound 28, 2-(6-chloro-2-oxo-4-phenyl-chromen-7-yl)oxy-N-[4-(3-hydroxypropyl)phenyl]propanamide] |
| 1000 to 10000 nM | CC(Oc1ccc2c(-c3ccccc3)cc(=O)oc2c1)C(=O)NCC(O)c1ccccc1 (centres unmarked) [Compound 29, N-(2-hydroxy-2-phenyl-ethyl)-2-(2-oxo-4-phenyl-chromen-7-yl)oxy-propanamide] |
| 100 to 1000 nM | CCOC(=O)[C@H]1CCCN(C(=O)[C@@H](C)Oc2ccc3c(-c4ccccc4)cc(=O)oc3c2)C1 [Compound 35, ethyl (3S)-1-[(2R)-2-(2-oxo-4-phenyl-chromen-7-yl)oxypropanoyl]piperidine-3-carboxylate] |
| 100 to 1000 nM | CC(Oc1ccc2c(-c3ccccc3)cc(=O)oc2c1)C(=O)N1CCC[C@H](C(=O)O)C1 (stereo partly drawn) [Compound 36, (3S)-1-[2-(2-oxo-4-phenyl-chromen-7-yl)oxypropanoyl]piperidine-3-carboxylic acid] |
| 1000 to 10000 nM | CC(Oc1ccc2c(-c3ccccc3)cc(=O)oc2c1)C(=O)N1CCC[C@@H](C(=O)O)C1 (stereo partly drawn) [Compound 37, (3R)-1-[2-(2-oxo-4-phenyl-chromen-7-yl)oxypropanoyl]piperidine-3-carboxylic acid] |
| 1000 to 10000 nM | COC(=O)[C@@H]1CCCN(C(=O)C(C)Oc2ccc3c(-c4ccccc4)cc(=O)oc3c2)C1 (stereo partly drawn) [Compound 38, methyl (3R)-1-[2-(2-oxo-4-phenyl-chromen-7-yl)oxypropanoyl]piperidine-3-carboxylate] |
| 100 to 1000 nM | CC(Oc1ccc2c(-c3ccccc3)cc(=O)oc2c1)C(=O)N1CCCCC1 (centres unmarked) [Compound 39, 7-[1-methyl-2-oxo-2-(1-piperidyl)ethoxy]-4-phenyl-chromen-2-one] |
| 100 to 1000 nM | CN(C(=O)COc1ccc2c(-c3ccccc3)cc(=O)oc2c1)c1ccc(CCO)cc1 [Compound 40, N-[4-(2-hydroxyethyl)phenyl]-N-methyl-2-(2-oxo-4-phenyl-chromen-7-yl)oxy-acetamide] |
| 100 to 1000 nM | CCOC(=O)C(C)Oc1ccc2c(-c3ccc(Br)cc3)cc(=O)oc2c1 (centres unmarked) [Compound 41, ethyl 2-[4-(4-bromophenyl)-2-oxo-chromen-7-yl]oxypropanoate] |

From patent US10703735B2, “4-phenyl-coumarin derivatives, processes for their preparation and uses thereof for the treatment of cancer” (Lead Discovery Center GmbH, priority 2018, dated 2020)
